Data reported in patent US8912121B2, “Herbicidal compositions comprising 4-amino-3-chloro-5-fluoro-6-(4-chloro-2-fluoro-3-methoxyphenyl)pyridine-2-carboxylic acid or a derivative thereof and certain PS II inhibitors” (Dow Agrosciences LLC, priority 2012, dated 2014).

Test system: LEFCH (Leptochloa chinensis, Chinese sprangletop)
Test: In-water applied mixtures, transplanted paddy rice, greenhouse
Format: in vivo, Leptochloa chinensis (L.) Nees
Experimental: Weed seeds or nutlets of the desired test plant species were planted in puddled soil (mud) prepared by mixing a shredded, non-sterilized mineral soil (50.5 percent silt, 25.5 percent clay, and 24 percent sand, with a pH of about 7.6 and an organic matter content of about 2.9 percent) and water at a 1:1 volumetric ratio. The prepared mud was dispensed in 365 mL aliquots into 16-ounce (oz.) non-perforated plastic pots with a surface area of 86.59 square centimeters (cm^2) leaving a headspace of 3 centimeters (cm) in each pot Mud was allowed to dry overnight prior to planting or transplanting. Rice seeds were planted in Sun Gro MetroMix® 306 planting mixture, which typically has a pH of 6.0 to 6.8 and an organic matter content of about 30 percent, in plastic plug trays. Seedlings at the second or third leaf stage of growth were transplanted into 840 mL of mud contained in 32-oz. non-perforated plastic pots with a surface area of 86.59 cm^2 4 days prior to herbicide application. The paddy was created by filling the headspace of the pots with 2.5 to 3 cm of water. When required to ensure good germination and healthy plants, a fungicide treatment and/or other chemical or physical treatment was applied. The plants were grown for 4-22 days in a greenhouse with an approximate 14 h photoperiod which was maintained at about 29° C during the day and 26° C. during the night. Nutrients were added as Osmocote® (19:6:12, N:P:K+ minor nutrients) at 2 g per 16-oz. pot and 4 g per 32-oz. pot. Water was added on a regular basis to maintain the paddy flood, and supplemental lighting was provided with overhead metal halide 1000-Watt lamps as necessary. The plants were employed for testing when they reached the first through fourth true leaf stage.
Treatments consisted of the acid or esters of 4-amino-3-chloro-5-fluoro-6-(4-chloro-2-fluoro-3-methoxy-phenyl)pyridine-2-carboxylic acid (compound A) each formulated as an SC (suspension concentrate) and various herbicidal components alone and in combination. Forms of compound A were applied on an acid equivalent basis.
Other herbicidal components were applied on an active ingredient basis and included photosystem II (PSII)-inhibits propanil formulated as […] bentazon-sodium formulated as Basagran®, and simetryne (technical grade material).
Treatment requirements for each compound or herbicidal component were calculated based upon the rates being tested, the concentration of active ingredient or acid equivalent in the formulation, an application volume of 2 mL per component per pot, and an application area of 86.59 cm^2 per pot.
For formulated compounds, a measured amount was placed in an individual 100 or 200 mL glass vial and was dissolved in a volume of 1.25% (v/v) Agri-Dex® crop oil concentrate to obtain application solutions.
For technical grade compounds, a weighed amount was placed in an individual 100 to 200 mL glass vial and was dissolved in a volume of acetone to obtain concentrated stock solutions. […] The concentrated stock solutions obtained were diluted with an equivalent volume of an aqueous mixture containing 2.5% (v/v) crop oil concentrate so that the final application solutions contained 1.25% (v/v) crop oil concentrate.
Applications were made by injecting with a pipetter appropriate amounts of the application solutions, individually and sequentially, into the aqueous layer of the paddy. Control plants were treated in the same manner with the solvent blank. Applications were made so that all treated plant material received the same concentrations of acetone and crop oil concentrate.
The treated plants and control plants were placed in a greenhouse as described above and water was added as needed to maintain a paddy flood. After approximately 3 weeks the condition of the test plants as compared with that of the untreated plants was determined visually and scored on a scale of 0 to 100 percent where 0 corresponds to no injury or growth inhibition and 100 corresponds to complete kill. […]

| SMILES | Visual Weed Control (%) Obs (8.75 g ae/ha, 21 DAA) [%] | Visual Weed Control (%) Obs (17.5 g ae/ha, 21 DAA) [%] | Visual Weed Control (%) Obs (42.4 g ae/ha, 20 DAA) [%] | Visual Weed Control (%) Obs (84.8 g ae/ha, 20 DAA) [%] | Visual Weed Control (%) Obs (35 g ae/ha, 21 DAA) [%] | Visual Weed Control (%) Obs (70 g ae/ha, 20 DAA) [%] |
| --- | --- | --- | --- | --- | --- | --- |
| COc1c(Cl)ccc(-c2nc(C(=O)O)c(Cl)c(N)c2F)c1F [Compound A Acid, 4-amino-3-chloro-6-(4-chloro-2-fluoro-3-methoxyphenyl)-5-fluoropyridine-2-carboxylic acid] | 0 | 0 | 15 | 55 |  |  |
| COc1c(Cl)ccc(-c2nc(C(=O)OCc3ccccc3)c(Cl)c(N)c2F)c1F [Compound A Benzyl Ester, benzyl ester of 4-amino-3-chloro-5-fluoro-6-(4-chloro-2-fluoro-3-methoxy-phenyl)pyridine-2-carboxylic acid] | 20 | 30 |  |  | 55 | 80 |
